In patent publication US5700640A, “Inducers of gamma globin gene expression and screening assays therefor” (priority 1994, dated 1997):

Key:
[1] = system: gamma globin gene expression (gamma3'PE reporter) in K562 cells; assay: gamma globin promoter-luciferase reporter assay in stably transfected gamma3'PE K562 cells; settings: for reporter gene activity relative to VA or IVA (FIG. 5): 24 hours, fold-induction relative to isovaleric acid; for fold induction at 5000 µM: Homo sapiens, K562, 72 h, read-out: fold induction of reporter gene activity (FIG. 6); for induction of gamma-globin reporter gene expression over time course (FIG. 3): 24-122 hr, normalized to viable cells
Description: The gamma globin 5' promoter and 3' enhancer fragments, alone or in combination with each other or another fragment, were inserted into restriction endonuclease sites flanking the coding sequences of the luciferase gene in pGL2 using standard recombinant DNA techniques (pGL2 was obtained commercially from Promega Biotech). Constructs were prepared which contained: 1) the gamma globin promoter alone upstream of the luciferase gene (gamma); 2) the gamma globin promoter upstream of the luciferase gene and the gamma globin 3' enhancer downstream of the luciferase gene (gamma3'PE); 3) the gamma globin promoter upstream of the luciferase gene and the SV40 enhancer downstream of the luciferase gene (gammaSV40); 4) the beta globin promoter upstream of the luciferase gene and the gamma globin 3' enhancer downstream of the luciferase gene Coeta3'PE); and 5) hypersensitive sites 2 and 3 G-IS2 and HS3) of the 5' globin enhancer upstream of the gamma globin promoter upstream of the luciferase gene and the gamma globin 3' enhancer downstream of the luciferase gene (HS2/3gamma3'PE). These constructs are illustrated schematically in FIG. 2.
The gamma globin-luciferase reporter gene constructs described in Example 1 were introduced into a human erythroleukemia cell line K562 (ATCC No. CCL 243). To create stable transfectants, K562 cells (5×10^6) in log phase were suspended in 400 μl HEPES buffered saline and then combined with 33.5 μg salmon testes DNA (Sigma), 1.5 μg neo plasmid (pPMT) and 15 μg reporter gene plasmid supercoiled that had been co-precipitated and suspended in 400 μl HEPES buffered saline. The DNA-cell mixture was electroporated at settings of 0.25 KV and 960 μFD using a Gene Pulser (BioRad Inc.) electropotation apparatus.
The cells were allowed to recover 10 minutes at room temperature, then added to 10 ml complete RPMI cell culture medium. Cell debris was removed by centrifugation at 1000 rpm for 5 minutes. The live cells were suspended in 20 ml RPMI in 2×10 cm dishes and grown in non-selective media for 48 hours. Stably transfected cells were then selected by growing the cells in media containing 300 μg/ml G418 for about one month. During this time the cells were split 1:5 every 3 to 4 days. Once the lines were stable, they were carried in 100 μg/ml G418. The cell lines were designated according to the reporter gene construct that was introduced into the cell line. For example, a cell line carrying the gamma'3PE construct was designated gamma3'PE. Transient transfections were carried out similarly except that the neo plasmid was omitted from the electroporation solution and the cells were not subjected to G418 selection.
K562 host cells carrying gamma globin-reporter gene constructs were used to lo screen compounds for their ability to induce globin gene expression, as measured by increased reporter gene activity in the host cells upon treatment with the compound. The host cells described in Example 2 were grown to log phase cells and plated at a density of 2×10^5 /ml in RPMI media without G418. After 24 hours, compounds to be assayed for their ability to induce globin gene expression were dissolved in RPMI media at a concentration of 5 mM and added to the K562 stable transfectants. Mock-treated stably transfected K562 cells served as a negative control. The cells were incubated with the test compounds at 37° C. for various time periods (e.g., 24, 50, 74 and 122 hours).
After induction with the test compounds, the cells were harvested, lysed and assayed for reporter gene activity (i.e., luciferase activity) as follows. Cells were collected, washed once with PBS and lysed in 200 μl Cell Culture Lysis 1 X Reagent (Promega Luciferase Assay System) consisting of 25 mM Tris-Phosphate pH 7.8; 2 mM DTT; 2 mM 1,2-diaminocyclohexane-N,N,N,N-tetraacetic acid; 10% glycerol; 1% Triton X-100.

in vitro = settings: human, k562 cells
Description: (§1) To normalize luciferase units to the number of viable cells, parallel cell viability assays were performed using 3-(4,5-dimethylthiazol-2-yl)-2,5-diphenyltetrazolium bromide (MTT) (Vistica, D. T. et al. (1991) Cancer Res. 51:2515-2520). Transfected K562 cells were plated in 96 well dishes at a density of 2×10^4 and 2×10^3 cells per 100 μl per well. 24 hours later, the cells were treated with test compounds (at a final concentration of 5 mM). At 24, 50, 74 or 122 hours after treatment, 50 μl of 3 mg/ml MTT in PBS was added to each well. The 96 well plate was then incubated at 37° C. for 4 to 5 hours. The formazan derivatives formed from tetrazolium by viable cells were solubilized by the addition of 50 μl/well 25% SDS, pH 3, overnight at 37° C. The plates were than read at a wavelength of 550 nm.

K562 cells = assay: in vitro
Description: as §1

gamma globin mRNA = assay: Northern hybridization of gamma globin mRNA in treated K562 cells; format: cell-based, human; settings: for Raw Value, gamma globin RNA / Normalized Value, gamma globin RNA: K562 cells, 5 mM, 96 hours; for Normalized Value, gamma globin RNA: normalized to 28S ribosomal RNA; for gamma globin mRNA steady state level: vs untreated cells or cells treated with BA
Description: (§2) Total RNA was prepared by the method of McDonald as described in Sambrook et al., (1989) Molecular Cloning: A Laboratory Manual, 2nd Edition, Cold Spring Harbor Laboratory Press. 10 μg total cellular RNA was electrophoresed through agarose gels containing 3.3% formaldehyde. The electrophoresed RNA was then transferred to nitrocellulose filters by standard methods. Each sample was hybridized to specific probes for gamma globin mRNA, mRNA encoding the erythroid specific transcription factor GATA-1 and 28S ribosomal RNA (which was used for standardization). The gamma globin and GATA-1 probes were cDNA probes, which were labeled with ^32 p by random priming reactions (Promega Biotech Inc.). The 28S ribosomal RNA probe was an oligonucleotide having the sequence 5' […] 3' (SEQ ID NO: 3), which was labeled by 5' end labeling using T4 polynucleotide kinase (New England Biolabs). Nucleotide probes were hybridized to the RNA nitrocellulose filters according to standard techniques. After hybridization, radioactive signals on the nitrocellulose filters were directly quantified using a BioRad GS-250 Molecular Imager. mRNA hybridization intensities were normalized to the amount of 28S ribosomal RNA present for each sample.

GATA-1 mRNA = assay: Northern hybridization of GATA-1 mRNA in treated K562 cells; format: cell-based, human; settings: for induction of mRNA encoding GATA-1: normalized data; for Normalized Value, GATA-1 RNA: normalized to 28S ribosomal RNA
Description: as §2

[2] = system: BA-mediated induction of luciferase activity in gamma3'PE K562 cells; assay: effect of transport inhibitors on BA-induced reporter gene activity in gamma3'PE K562 cells; format: cell-based, human; settings: acetazolamide 1 mM, SITS 10 μM, amiloride 10 μM; 24 hours with BA
Description: To characterize uptake of butyric acid by erythroid cells, K562 cells stably transfected with gamma3'PE were treated with BA in the presence of various transport inhibitors. […] Cells were maintained in the continuous presence of both BA and the inhibitor for 24 hours and then luciferase activity in the cells was measured.

[3] = system: gamma globin reporter gene activity in gamma3'PE K562 cells (protein kinase C activation); assay: effect of indolactam V stereoisomers on basal and BA-induced reporter gene activity; format: cell-based, human; settings: for effect on BA-induced globin gene expression (fold increment vs untreated cells) / effect on basal level globin gene expression: 11 μM or 0.4 μM; for effect on BA-induced globin gene expression (fold increment vs untreated cells): 1 hour before 5 mM BA for 24 hours; for effect on basal level globin gene expression: no BA
Description: The role of activated protein kinase C (pKC) in the activation of gamma globin gene expression by BA was investigated. […] The chemical structures of these compounds are shown in FIG. 13, panel A and B, respectively. Gamma3'PE cells were pre-incubated with either inducer (at 11 μM or 0.4 μM) or left untreated for 1 hour prior to treatment with 5 mMBA for 24 hours, followed by harvesting of the cells and assaying of luciferase activity. The results are shown in FIG. 14, Panel A (11 μM inducer) and FIG. 14, Panel B (0.4 μM inducer). […] Thus, it appears that these compounds act synergistically through pathways converging at some point downstream of the initial site of action of either inducer.

[4] = compared with induction mediated by BA

O=C(O)CCCCc1ccccc1 [5-phenyl valeric acid]
reporter gene activity relative to VA or IVA (FIG. 5) ([1]; 5 mM): detectable reporter gene activity, although to a lesser extent than VA or IVA

C#CCCC(=O)O [4PyA, 4-pentynoic acid]
fold induction at 5000 µM [1]: ~4 | viability at 72 h, 5000 µM (in vitro): > 50% | cell death accompanying gamma globin gene induction (K562 cells): significantly less cell death than induction mediated by BA

CSCC(=O)O [MtAA, methylthioacetic acid]
fold induction at 5000 µM [1]: ~5 | viability at 72 h, 5000 µM (in vitro): > 50% | cell death accompanying gamma globin gene induction (K562 cells): significantly less cell death than induction mediated by BA

COCC(=O)O [MoAA, methoxyacetic acid]
fold induction at 5000 µM [1]: ~4 | viability at 72 h, 5000 µM (in vitro): > 50% | cell death accompanying gamma globin gene induction (K562 cells; [4]): significantly less cell death than induction mediated by BA

CC(C)CC(=O)O [IVA, isovaleric acid]
Raw Value, gamma globin RNA (gamma globin mRNA): 5.94 × 10^6 | Normalized Value, gamma globin RNA (gamma globin mRNA): 5.3 × 10^6 | gamma globin mRNA steady state level (gamma globin mRNA): higher steady state level of gamma globin mRNA than untreated cells or cells treated with BA | induction of mRNA encoding GATA-1 (GATA-1 mRNA): significant induction of mRNA encoding GATA-1 | Normalized Value, GATA-1 RNA (GATA-1 mRNA; K562 cells, 5 mM, 96 hours): 1.3 × 10^6 | induction of gamma-globin reporter gene expression over time course (FIG. 3) ([1]; 5 mM): lower but sustained induction of reporter gene expression | cell death accompanying gamma globin gene induction (K562 cells; [4]): significantly less cell death than induction mediated by BA

O=C(O)CCCc1ccccc1 [4-phenyl butyric acid]
reporter gene activity relative to VA or IVA (FIG. 5) ([1]; 5 mM): detectable reporter gene activity to a slightly greater extent than VA or IVA

O=C(O)CCc1ccccc1 [3-phenyl propionic acid]
reporter gene activity relative to VA or IVA (FIG. 5) ([1]; 5 mM): detectable reporter gene activity, although to a lesser extent than VA or IVA

CC(=O)Nc1nnc(S(N)(=O)=O)s1 [acetazolamide]
effect on BA-mediated induction of luciferase activity [2]: did not affect BA-mediated induction of luciferase activity

CCCCC(=O)OC(=O)CCCC [valeric acid anhydride]
reporter gene activity relative to VA or IVA (FIG. 5) ([1]; 5 mM): detectable reporter gene activity, although to a lesser extent than VA or IVA

CC(=O)Nc1ccc(C=Cc2ccc(N=C=S)cc2S(=O)(=O)O)c(S(=O)(=O)O)c1 [SITS]
effect on BA-mediated induction of luciferase activity [2]: did not affect BA-mediated induction of luciferase activity

CC(C)[C@@H]1C(=O)N[C@@H](CO)Cc2c[nH]c3cccc(c23)N1C [(+) indolactam V]
effect on BA-induced globin gene expression (fold increment vs untreated cells) [3]: same fold increment | effect on basal level globin gene expression [3]: unaffected

CCC(=O)O [propionic acid]
reporter gene activity relative to VA or IVA (FIG. 5) ([1]; 5 mM): detectable reporter gene activity, although to a lesser extent than VA or IVA

CC(C)[C@H]1C(=O)N[C@H](CO)Cc2c[nH]c3cccc(c23)N1C [(-) indolactam V]
effect on BA-induced globin gene expression (fold increment vs untreated cells) [3]: same fold increment | effect on basal level globin gene expression [3]: significant stimulatory effect on basal level globin gene expression | net increase in gene expression of combined treatment with BA ([3]; combined (-) indolactam V and 5 mM BA): well above the arithmetic sum of the level of induction achieved by either of these compounds separately

N=C(N)NC(=O)c1nc(Cl)c(N)nc1N [amiloride]
effect on BA-mediated induction of luciferase activity [2]: did not affect BA-mediated induction of luciferase activity

CCCCC(=O)O [VA, valeric acid]
fold induction at 5000 µM (gamma globin mRNA; Homo sapiens, K562, 96 h, read-out: Fold Induction, gamma globin RNA): 4.4 | Raw Value, gamma globin RNA (gamma globin mRNA): 3.35 × 10^6 | Normalized Value, gamma globin RNA (gamma globin mRNA): 3.3 × 10^6 | gamma globin mRNA steady state level (gamma globin mRNA): higher steady state level of gamma globin mRNA than untreated cells or cells treated with BA | fold induction at 5000 µM (GATA-1 mRNA; Homo sapiens, K562, 96 h, read-out: Fold Induction, GATA-1 RNA): 6 | Raw Value, GATA-1 RNA (GATA-1 mRNA; K562 cells, 5 mM, 96 hours): 3.96 × 10^5 | induction of mRNA encoding GATA-1 (GATA-1 mRNA): significant induction of mRNA encoding GATA-1 | Normalized Value, GATA-1 RNA (GATA-1 mRNA; K562 cells, 5 mM, 96 hours): 3.5 × 10^5 | induction of gamma-globin reporter gene expression over time course (FIG. 3) ([1]; 5 mM): lower but sustained induction of reporter gene expression | induction relative to BA at 74 hr (FIG. 4) ([1]; 5 mM, normalized to fold induction by BA, 74 hr): marginally better inducers than BA at 74 hr | induction relative to BA at 122 hr (FIG. 4) ([1]; 5 mM, normalized to fold induction by BA, 122 hr): significantly better inducers than BA at 122 hr post induction | cell death accompanying gamma globin gene induction (K562 cells): significantly less cell death than induction mediated by BA | cell viability relative to untreated cells (FIG. 7) (K562 cells): equivalent to that of untreated cells
